Assay in all cases: relative viability (nuclei count vs DMSO), 5 days (fraction); higher = more cells survive
Compound in the test “Veliparib + Linsitinib”: C[C@]1(c2nc3c(C(N)=O)cccc3[nH]2)CCCN1 [Veliparib] + C[C@]1(O)C[C@@H](c2nc(-c3ccc4ccc(-c5ccccc5)nc4c3)c3c(N)nccn32)C1 [Linsitinib] (partner 1 µM)
In a few lines:
(§1)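 Relative viability was taken as the ratio of nuclei in treated wells to nuclei in vehicle wells. Lung cancer cell lines in 1536-well plates received compounds by pin tool one day after seeding, either one drug alone or a fixed anchor-drug dose plus five library-drug doses (not always all listed) in √10 steps. Nuclei were counted on 4× images after 5 days of treatment, and values are medians of duplicate plates.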

Compound in the test “Veliparib + Bortezomib”: C[C@]1(c2nc3c(C(N)=O)cccc3[nH]2)CCCN1 [Veliparib] + CC(C)C[C@H](NC(=O)[C@H](Cc1ccccc1)NC(=O)c1cnccn1)B(O)O [Bortezomib] (partner 0.002 µM)
Summed up:
as §1

Compound in the test “Veliparib + Foretinib”: C[C@]1(c2nc3c(C(N)=O)cccc3[nH]2)CCCN1 [Veliparib] + COc1cc2c(Oc3ccc(NC(=O)C4(C(=O)Nc5ccc(F)cc5)CC4)cc3F)ccnc2cc1OCCCN1CCOCC1 [Foretinib] (partner 0.25 µM)
Summed up:
as §1

Compound in test [1]: COC1=CC=C(C=C1)CN2C=CC3=C2C=C(C=C3)C(=O)NO + Cc1cc(Nc2cc(N3CCN(C)CC3)nc(Sc3ccc(NC(=O)C4CC4)cc3)n2)n[nH]1 [Tozasertib] (partner 0.1 µM)
In a few lines: as §1

For the cell line NCI-H838, the relative viability in the test with Veliparib + Linsitinib (first compound 0.02 µM) is 1.07; with Veliparib + Linsitinib (first compound 0.06325 µM) it was 0.981; with Veliparib + Linsitinib (first compound 0.2 µM) it was 1.03; with Veliparib + Linsitinib (first compound 0.6325 µM), 0.888; in the test with Veliparib + Linsitinib (first compound 2 µM), 1.1; in the test with Veliparib + Bortezomib (first compound 0.02 µM), 0.905. Moreover, the relative viability came to 0.79 with Veliparib + Bortezomib (first compound 0.06325 µM); 0.926 with Veliparib + Bortezomib (first compound 0.2 µM); 0.686 with Veliparib + Bortezomib (first compound 0.6325 µM); 0.848 with Veliparib + Bortezomib (first compound 2 µM); 1.09 with Veliparib + Foretinib (first compound 0.02 µM); 0.987 with Veliparib + Foretinib (first compound 0.06325 µM). In addition, the relative viability with Veliparib + Foretinib (first compound 0.2 µM) came to 1.04; with Veliparib + Foretinib (first compound 0.6325 µM), 0.967; in the test with Veliparib + Foretinib (first compound 2 µM), 1.06; in test [1] (first compound 0.253 µM), 0.267; in test [1] (first compound 0.8 µM), 0.293; in test [1] (first compound 2.53 µM), 0.274. Besides, in test [1] (first compound 8 µM), the relative viability was found to be 0.267.

With NCI-H1355, the relative viability with Veliparib + Linsitinib (first compound 0.06325 µM) was 0.746; with Veliparib + Linsitinib (first compound 0.2 µM), 0.832; in the test with Veliparib + Linsitinib (first compound 0.6325 µM) it was 0.76; with Veliparib + Linsitinib (first compound 2 µM), 0.849; in the test with Veliparib + Bortezomib (first compound 0.06325 µM) it was 0.707; with Veliparib + Bortezomib (first compound 0.2 µM), 1.23. The relative viability with Veliparib + Bortezomib (first compound 0.6325 µM) was found to be 1.09; with Veliparib + Bortezomib (first compound 2 µM), 1.15; with Veliparib + Foretinib (first compound 0.06325 µM) it was 0.879; with Veliparib + Foretinib (first compound 0.2 µM), 0.965; with Veliparib + Foretinib (first compound 0.6325 µM), 0.932; with Veliparib + Foretinib (first compound 2 µM), 0.982. Besides, the relative viability in test [1] (first compound 0.253 µM) came out at 0.548; in test [1] (first compound 0.8 µM) it was 0.585; in test [1] (first compound 2.53 µM), 0.531; in test [1] (first compound 8 µM), 0.515.

Consider NCI-H1437, for which the relative viability came to 1.01 with Veliparib + Linsitinib (first compound 0.02 µM); 1.04 in the test with Veliparib + Linsitinib (first compound 0.06325 µM); 1.02 with Veliparib + Linsitinib (first compound 0.2 µM); 1.03 in the test with Veliparib + Linsitinib (first compound 0.6325 µM); 1.08 with Veliparib + Linsitinib (first compound 2 µM); 0.424 in the test with Veliparib + Bortezomib (first compound 0.02 µM). Besides, the relative viability in the test with Veliparib + Bortezomib (first compound 0.06325 µM) turned out to be 0.496; with Veliparib + Bortezomib (first compound 0.2 µM) it was 0.472; with Veliparib + Bortezomib (first compound 0.6325 µM), 0.47; in the test with Veliparib + Bortezomib (first compound 2 µM), 0.474; in the test with Veliparib + Foretinib (first compound 0.02 µM), 1.12; with Veliparib + Foretinib (first compound 0.06325 µM), 1.17. The relative viability was determined as 1.2 with Veliparib + Foretinib (first compound 0.2 µM); 1.24 with Veliparib + Foretinib (first compound 0.6325 µM); 1.23 with Veliparib + Foretinib (first compound 2 µM); 0.321 in test [1] (first compound 0.08 µM); 0.446 in test [1] (first compound 0.253 µM); 0.395 in test [1] (first compound 0.8 µM). Besides, the relative viability in test [1] (first compound 2.53 µM) was 0.42; in test [1] (first compound 8 µM), 0.409.

In the case of NCI-H1651, the relative viability with Veliparib + Linsitinib (first compound 0.02 µM) came out at 0.854; with Veliparib + Linsitinib (first compound 0.06325 µM), 1.01; with Veliparib + Linsitinib (first compound 0.2 µM), 0.984; in the test with Veliparib + Linsitinib (first compound 0.6325 µM), 0.82; in the test with Veliparib + Linsitinib (first compound 2 µM), 0.805; with Veliparib + Bortezomib (first compound 0.02 µM), 0.924. Further, the relative viability with Veliparib + Bortezomib (first compound 0.06325 µM) came out at 0.883; in the test with Veliparib + Bortezomib (first compound 0.2 µM), 0.908; with Veliparib + Bortezomib (first compound 0.6325 µM), 0.918; with Veliparib + Bortezomib (first compound 2 µM) it was 0.876; with Veliparib + Foretinib (first compound 0.02 µM), 0.793; with Veliparib + Foretinib (first compound 0.06325 µM), 0.74. Moreover, the relative viability in the test with Veliparib + Foretinib (first compound 0.2 µM) stood at 0.762; with Veliparib + Foretinib (first compound 0.6325 µM) it was 0.724; in the test with Veliparib + Foretinib (first compound 2 µM), 0.692; in test [1] (first compound 0.08 µM) it was 0.574; in test [1] (first compound 0.253 µM), 0.717; in test [1] (first compound 0.8 µM), 0.799. The relative viability in test [1] (first compound 2.53 µM) came to 0.713; in test [1] (first compound 8 µM) it was 0.645.

Regarding NCI-H1666, the relative viability came to 0.93 with Veliparib + Linsitinib (first compound 0.02 µM); 0.557 with Veliparib + Linsitinib (first compound 0.06325 µM); 0.865 in the test with Veliparib + Linsitinib (first compound 0.2 µM); 0.671 with Veliparib + Linsitinib (first compound 0.6325 µM); 0.838 with Veliparib + Linsitinib (first compound 2 µM); 0.879 with Veliparib + Bortezomib (first compound 0.02 µM). Further, the relative viability with Veliparib + Bortezomib (first compound 0.06325 µM) was found to be 0.599; with Veliparib + Bortezomib (first compound 0.2 µM) it was 0.81; with Veliparib + Bortezomib (first compound 0.6325 µM), 0.666; with Veliparib + Bortezomib (first compound 2 µM), 0.875; in the test with Veliparib + Foretinib (first compound 0.02 µM), 1.01; with Veliparib + Foretinib (first compound 0.06325 µM), 0.96. The relative viability in the test with Veliparib + Foretinib (first compound 0.2 µM) stood at 0.997; with Veliparib + Foretinib (first compound 0.6325 µM) it was 0.895; in the test with Veliparib + Foretinib (first compound 2 µM), 0.964; in test [1] (first compound 0.08 µM), 0.498; in test [1] (first compound 0.253 µM) it was 0.622; in test [1] (first compound 0.8 µM) it was 0.571. Moreover, the relative viability in test [1] (first compound 2.53 µM) came to 0.641; in test [1] (first compound 8 µM), 0.628.

On to NCI-H1734, for which the relative viability stood at 0.925 with Veliparib + Linsitinib (first compound 0.02 µM); 0.85 with Veliparib + Linsitinib (first compound 0.06325 µM); 0.917 with Veliparib + Linsitinib (first compound 0.2 µM); 0.805 with Veliparib + Linsitinib (first compound 0.6325 µM); 0.928 with Veliparib + Linsitinib (first compound 2 µM); 0.911 in the test with Veliparib + Bortezomib (first compound 0.02 µM). For the same cell line, the relative viability came out at 0.779 in the test with Veliparib + Bortezomib (first compound 0.06325 µM); 0.904 with Veliparib + Bortezomib (first compound 0.2 µM); 0.827 with Veliparib + Bortezomib (first compound 0.6325 µM); 1.01 in the test with Veliparib + Bortezomib (first compound 2 µM); 0.797 with Veliparib + Foretinib (first compound 0.02 µM); 0.85 with Veliparib + Foretinib (first compound 0.06325 µM). The relative viability with Veliparib + Foretinib (first compound 0.2 µM) was determined as 0.886; with Veliparib + Foretinib (first compound 0.6325 µM), 0.832; with Veliparib + Foretinib (first compound 2 µM), 0.836; in test [1] (first compound 0.253 µM), 0.236; in test [1] (first compound 0.8 µM), 0.242; in test [1] (first compound 2.53 µM) it was 0.251. For the same cell line, the relative viability in test [1] (first compound 8 µM) was determined as 0.23.

Take NCI-H1755: the relative viability with Veliparib + Linsitinib (first compound 0.02 µM) stood at 1; with Veliparib + Linsitinib (first compound 0.06325 µM) it was 0.972; with Veliparib + Linsitinib (first compound 0.2 µM) it was 0.972; with Veliparib + Linsitinib (first compound 0.6325 µM) it was 0.968; in the test with Veliparib + Linsitinib (first compound 2 µM) it was 0.963; in the test with Veliparib + Bortezomib (first compound 0.02 µM), 0.888. Further, the relative viability with Veliparib + Bortezomib (first compound 0.06325 µM) stood at 0.892; in the test with Veliparib + Bortezomib (first compound 0.2 µM) it was 0.924; in the test with Veliparib + Bortezomib (first compound 0.6325 µM) it was 0.954; with Veliparib + Bortezomib (first compound 2 µM), 0.868; with Veliparib + Foretinib (first compound 0.02 µM) it was 0.947; in the test with Veliparib + Foretinib (first compound 0.06325 µM), 0.915. Moreover, the relative viability with Veliparib + Foretinib (first compound 0.2 µM) is 0.935; in the test with Veliparib + Foretinib (first compound 0.6325 µM), 0.893; in the test with Veliparib + Foretinib (first compound 2 µM) it was 0.91; in test [1] (first compound 0.08 µM) it was 0.512; in test [1] (first compound 0.253 µM) it was 0.688; in test [1] (first compound 0.8 µM), 0.619. Besides, the relative viability in test [1] (first compound 2.53 µM) worked out at 0.584; in test [1] (first compound 8 µM), 0.524.

The values are drawn from the supplement of paper PMC10307832.
